Assay results: US20240425808A1, “A METHOD FOR RAPID GENERATION OF 3D ORGANOTYPIC CELL CLUSTERS” (THE TRUSTEES OF INDIANA UNIVERSITY, priority 2022, published 2024)

Tests used:
Assay type in all cases: cell-based, human
[1] = system: tumor cells within RCC derived APCCs; experiment: Tumor cell death within APCCs by time-lapse imaging; conditions: 24-hour time lapse, anti-PD1 5 μg/mL
Protocol: To evaluate the preservation of MDSC viability inside APCCs, initial tests were performed with renal cell carcinoma (RCC) primary tumors from patients. For MDSC study, the CD15+ cells were first isolated from dissociated patient tumor cells via magnetic microbeads, which consist of tumor infiltrating neutrophils including immunosuppressive polymorphonuclear myeloid derived suppressor cells (PMN-MDSCs). The CD15+ cells were pre-labelled with DiL membrane dyes (shown as yellow). T cells were isolated via a 1:1 mixture of CD4 and CD8 microbeads and pre-labeled the T cells with DiO membrane dyes. The CD15+, CD4+, CD8+ depleted dissociated tumor cells were labeled with the blue CMAC cell tracker dye. Membrane impermeable cell nucleus staining NucRed dead 647 was added to indicate cell death. The cell death of the CD15+ cells was calculated by analyzing co-localization of Dil labeled MDSCs and NucRed cell death indicator dye over time-lapse imaging (FIG. 2A).
MDSC-targeting drugs alone and/or in combination with ICIs. […] The tumor cell death over a 24-hour time lapse was observed. […]
Digested tumor cells were equally divided into 3 tubes. […] Before acoustic assembly, 1 drop of NucRed Dead 647 ReadyProbes (Invitrogen) was added to 1 milliter of cell suspensions and left in medium to visualize cell death over time. […]

[2] = system: TNF-α; experiment: ELISA analysis of TNF-α in APCC culture supernatants; conditions: n=3
Protocol: (§1) The levels of TNF-α and IFN-γ were elevated in the APCCs treated with anti-PD1. […] (FIG. 4B).
(§2) Cabozantinib (SelleckChem) was added at 10 μM to the APCCs.
(§3) To perform cytokine analysis on the APCCs and 2D tumor cultures, 50 μL supernatants were pipetted out of the culture vessel and centrifuged at 10,000 g for 10 minutes to remove cell debris. The supernatants were then analyzed by human TNF-α or IFN-γ kits (Tribioscience).

[3] = system: IFN-γ; experiment: ELISA analysis of IFN-γ in APCC culture supernatants; conditions: n=3
Protocol: as §1, §2, §3

[4] = system: TNF-α gene expression in CD4/CD8+ T cells; experiment: qRT-PCR of TNF-α expression in CD4/CD8+ T cells isolated from APCCs; conditions: n=3
Protocol: as §2
(§4) For qRT-PCR analysis of the CD15+ cells and CD4/8+ T cells, CD15+ cells or CD4/8+ T cells were pre-labeled by CD15 or CD4-and-CD8 (1:1) magnetic beads for 15 minutes at 4° C. respectively before mixed with other tumor cells for acoustic assembly. The CD15+ cells or CD4/8+ T cells with the labeling beads were then assembled into APCCs. To analyze their gene expression profiles, the APCCs were digested by with cell recovery solution (Corning), and input onto MACS columns (Miltenyi) for positive magnetic separation to isolate pure CD15+ cells or T cells (CD4+ or CD8+). The purified CD15+ cells or CD4/8+ T cells were then lysed for RNA extraction by RNeasy Mini Kit (Qiagen), reverse transcribed to cDNA by High-Capacity cDNA Reverse Transcription Kit (Applied Biosystems), and analyzed using corresponding primer pairs (Table 2) and SYBR Green PCR Master Mix (Applied Biosystems). The samples were run on a StepOne Real Time PCR machine (Applied Biosystems) to quantify signals. The results were analyzed using AACt method for fold change analysis.

[5] = system: IFN-γ gene expression in CD4/CD8+ T cells; experiment: qRT-PCR of IFN-γ expression in CD4/CD8+ T cells isolated from APCCs; conditions: n=3
Protocol: as §2, §4

[6] = APCCs without CD15+ cells, 24 hours post-treatment
[7] = T cells isolated from APCCs 24 hours post-treatment

Pembrolizumab [anti-PD1]
increase in tumor cell death as compared to untreated control ([1]; APCCs from 3 RCC patient primary tumors, Cabozantinib 10 μM): about 17.0%±9.4% | increase in tumor cell death as compared to untreated control, APCCs without CD15+ cells ([1]; APCCs without CD15+ cells (MDSCs removal)): about 40.9%±9.4% | TNF-α level in culture supernatant, APCCs without CD15+ cells ([2]; APCCs without CD15+ cells): further elevated | TNF-α level in culture supernatant ([2]; RCC APCCs, vs control): elevated | IFN-γ level in culture supernatant, APCCs without CD15+ cells ([3]; APCCs without CD15+ cells): further elevated | IFN-γ level in culture supernatant ([3]; RCC APCCs, vs control): elevated | TNF-α gene expression in CD4/CD8+ T cells, APCCs without CD15+ cells [4, 6]: highest | TNF-α gene expression in CD4/CD8+ T cells [4, 7]: enhanced | IFN-γ gene expression in CD4/CD8+ T cells, APCCs without CD15+ cells [5, 6]: highest | IFN-γ gene expression in CD4/CD8+ T cells [5, 7]: enhanced
